≈ marks a conversion by molar mass, not a printed value. Like-named read-outs stand apart in the source and are kept apart here. Where a SMILES comes first, the peptide text is derived from it. Bridges are numbered along the chain shown (N, C = ends). [ ]: non-standard residue; d: D form. The star is where a group is joined. Decanoyl(3R-OH) = CCCCCCC[C@@H](O)CC(=O)*; Dab = NCC[C@H](N)C(=O)O
Tests used:
[1] = system: C. neoformans var. neoformans; assay: microbe, parasite or virus in culture; settings: Cryptococcus neoformans, no visible growth
Method: (§1) The MICs of the yeast strains for PMB, PME, and octapeptin C4 and its derivatives were determined in accordance with CLSI M27-A2 guidelines using YNB (Becton Dickinson, USA) medium supplemented with 10 mM ammonium sulfate and 2% glucose, a final inoculum concentration of 1.5 × 10^3 to 2.0 × 10^3 cells/ml, and incubation at 35°C for 72 h ([39]). […] The MICs for PMB, PME, and octapeptin C4 for A. fumigatus were determined in accordance with the CLSI M38-A2 guidelines ([40]) using synthetic RPMI 1640 medium (with glutamine, without bicarbonate and with phenol red; Life Technologies, USA). The final inoculum concentration was 0.4 × 10^4 to 5 × 10^4 cells/ml, with incubation at 35°C for 48 h. […] All assays were completed in triplicate. Fluconazole was used as a positive control where the MIC was determined at both 50% growth (in accordance with CLSI M27-A2 guidelines) and when there was a “no visible growth” reading.

[2] = system: C. neoformans var. gattii; assay: microbe, parasite or virus in culture; settings: no visible growth
Method: as §1

[3] = system: C. neoformans var. grubii; assay: organism not typed
Method: The MICs of the yeast strains for PMB, PME, and octapeptin C4 and its derivatives were determined in accordance with CLSI M27-A2 guidelines using YNB (Becton Dickinson, USA) medium supplemented with 10 mM ammonium sulfate and 2% glucose, a final inoculum concentration of 1.5 × 10^3 to 2.0 × 10^3 cells/ml, and incubation at 35°C for 72 h ([39]). […] The MICs for PMB, PME, and octapeptin C4 for A. fumigatus were determined in accordance with the CLSI M38-A2 guidelines ([40]) using synthetic RPMI 1640 medium (with glutamine, without bicarbonate and with phenol red; Life Technologies, USA). The final inoculum concentration was 0.4 × 10^4 to 5 × 10^4 cells/ml, with incubation at 35°C for 48 h. […] All assays were completed in triplicate. Fluconazole was used as a positive control where the MIC was determined at both 50% growth (in accordance with CLSI M27-A2 guidelines) and when there was a “no visible growth” reading. […]

[4] = system: C. neoformans H99 (cap59Δ); type: cell-based, Cryptococcus neoformans; settings: Table 2; triplicate, values consistent across replicates
Source text: The different susceptibility of C. neoformans and C. gattii to PMB compared to other pathogenic fungi such as C. albicans and A. fumigatus has been postulated to arise from differences in cell surface composition ([38]). One key difference is the presence of a negatively charged polysaccharide capsule in Cryptococcus spp. proposed to concentrate the cationic lipopeptides at the cell surface ([38]). To examine this potential interaction for the octapeptin series, a C. neoformans cap59Δ mutant strain deficient in the secretion of negatively charged glucuronoxylomannan (an α1–3-linked mannan containing β1,2 and β1,4 xylosyl substitutions, as well as β1,2-linked glucuronyl residues) ([41], [42]), was tested against octapeptin C4 in comparison to PMB.
(§2) Fungal strains were stored in 15% glycerol at −80°C until use. The fungal strains used were H99 (C. neoformans type strain) ([55]), cap59Δ (an acapsular H99 mutant) ([56]), ATCC 90113 (C. neoformans), MMRL 2651 (C. gattii), ATCC 90028 (Candida albicans), ATCC 90030 (Candida glabrata), ATCC 22019 (Candida parapsilosis), and ATCC MYA 3626 (Aspergillus fumigatus). Yeasts were cultured in liquid (1% yeast extract, 2% Bacto peptone, 2% glucose) or solid (additional 2% agar) yeast extract-peptone-dextrose (YPD) media at 30°C and maintained at 4°C for no longer than 2 weeks. A. fumigatus was prepared on potato dextrose medium at 30°C and maintained at 4°C for no longer than 2 weeks.
as §1

C. gattii MMRL 2651 = system: C. gattii MMRL 2651
Method: (§3) A broth microdilution assay was initially used to characterize the antifungal activity of the cyclic lipopeptides ([39], [40]). […] common pathogenic yeasts (C. albicans, C. glabrata, C. parapsilosis, C. neoformans, and C. gattii) and one pathogenic mold (A. fumigatus) were tested to determine the MIC for each compound (Table 1) using broth microdilution. […] The only structural difference between these molecules is the presence of a phenylalanine residue at position 6 in PMB; in PME a D-leucine is present at this location (Fig. 1).
as §2, §1

C. neoformans ATCC 90113 = settings: ATCC 90113, 72 h
Method: as §3, §2, §1

C. neoformans H99 = settings: H99, 72 h
Method: as §3, §2, §1

C[C@@H]1[C@H](O)[C@@H](C)/C=C/C=C/C=C/C=C/C=C/C=C/C=C/[C@H](O[C@@H]2O[C@H](C)[C@@H](O)[C@H](N)[C@@H]2O)C[C@@H]2O[C@](O)(C[C@@H](O)C[C@@H](O)[C@H](O)CC[C@@H](O)C[C@@H](O)CC(=O)O[C@H]1C)C[C@H](O)[C@H]2C(=O)O [Amphotericin B, amphotericin B]
MIC ([1]; strain WM 01.127 (USA)): 3.13 µg/mL (≈ 3.39 µM) | MIC ([1]; strain WM 02.141 (Russia)): 3.13 µg/mL (≈ 3.39 µM) | MIC ([1]; strain WM 02.143 (Russia)): 3.13 µg/mL (≈ 3.39 µM) | MIC ([1]; strain WM 02.37 (Canada)): 3.13 µg/mL (≈ 3.39 µM) | MIC ([1]; strain WM 04.168 (Chile)): 3.13 µg/mL (≈ 3.39 µM) | MIC ([1]; strain WM 04.171 (Thailand, environmental)): 3.13 µg/mL (≈ 3.39 µM) | MIC ([1]; strain WM 05.467 (Brazil, environmental)): 3.13 µg/mL (≈ 3.39 µM) | MIC ([1]; strain WM 05.515 (Peru)): 3.13 µg/mL (≈ 3.39 µM) | MIC ([1]; strain WM 09.109 (Italy, environmental)): 3.13 µg/mL (≈ 3.39 µM) | MIC ([1]; strain WM 09.112 (USA)): 3.13 µg/mL (≈ 3.39 µM) | MIC ([1]; strain WM 10.119 (Australia)): 3.13 µg/mL (≈ 3.39 µM) | MIC ([1]; strain WM 629 (Australia)): 3.13 µg/mL (≈ 3.39 µM) | MIC ([1]; strain WM 1706 (Argentina)): 3.13 µg/mL (≈ 3.39 µM) | MIC ([1]; strain WM 1740 (Chile)): 3.13 µg/mL (≈ 3.39 µM) | MIC ([1]; strain WM 2207 (USA, environmental)): 3.13 µg/mL (≈ 3.39 µM) | MIC ([1]; strain WM 2242 (USA)): 3.13 µg/mL (≈ 3.39 µM) | MIC ([1]; strain WM 2530 (USA)): 3.13 µg/mL (≈ 3.39 µM) | MIC ([2]; Cryptococcus neoformans, ATCC32269, strain ATCC 32269): 3.13 µg/mL (≈ 3.39 µM) | MIC ([2]; Cryptococcus neoformans, ATCC32609, strain ATCC 32609 (NIH444)): 3.13 µg/mL (≈ 3.39 µM) | MIC ([2]; Cryptococcus neoformans, ATCC34878, strain ATCC 34878): 3.13 µg/mL (≈ 3.39 µM) | MIC ([2]; Cryptococcus neoformans, ATCC34882, strain ATCC 34882): 3.13 µg/mL (≈ 3.39 µM) | MIC ([2]; Cryptococcus neoformans, strain 93/980 (CSF France)): 3.13 µg/mL (≈ 3.39 µM) | MIC ([2]; Cryptococcus neoformans, strain 94/943-6 (CSF Mexico)): 3.13 µg/mL (≈ 3.39 µM) | MIC ([2]; Cryptococcus neoformans, strain 94/943-8 (CSF Mexico)): 3.13 µg/mL (≈ 3.39 µM) | MIC ([2]; Cryptococcus neoformans, strain R270 (Vancouver Island)): 12.5 µg/mL (≈ 13.5 µM) | MIC ([2]; strain 96/1120-2 (CSF HIV2 France)): 12.5 µg/mL (≈ 13.5 µM) | MIC [3]: 3.13 µg/mL (≈ 3.39 µM) | MIC ([3]; Cryptococcus neoformans): 3.13 µg/mL (≈ 3.39 µM) | MIC ([3]; strain 486 (USA), no visible growth): 3.13 µg/mL (≈ 3.39 µM) | MIC ([3]; strain 488 (AIDS+, pre-HAART USA), no visible growth): 3.13 µg/mL (≈ 3.39 µM) | MIC ([3]; strain 490 (USA), no visible growth): 3.13 µg/mL (≈ 3.39 µM) | MIC ([3]; strain 496 (USA), no visible growth): 3.13 µg/mL (≈ 3.39 µM) | MIC ([3]; strain 500 (USA), no visible growth): 3.13 µg/mL (≈ 3.39 µM) | MIC ([3]; strain 502 (ARR3+ USA), no visible growth): 3.13 µg/mL (≈ 3.39 µM) | MIC ([3]; strain 505 (India), no visible growth): 3.13 µg/mL (≈ 3.39 µM) | MIC ([3]; strain 507 (India), no visible growth): 3.13 µg/mL (≈ 3.39 µM) | MIC ([3]; strain 510 (VNII India), no visible growth): 3.13 µg/mL (≈ 3.39 µM) | MIC ([3]; strain 512 (India), no visible growth): 3.13 µg/mL (≈ 3.39 µM) | MIC ([3]; strain 516 (India), no visible growth): 3.13 µg/mL (≈ 3.39 µM) | MIC ([3]; strain 518 (VNI India), no visible growth): 3.13 µg/mL (≈ 3.39 µM) | MIC ([3]; strain 522 (India), no visible growth): 3.13 µg/mL (≈ 3.39 µM) | MIC ([3]; strain 525 (India), no visible growth): 3.13 µg/mL (≈ 3.39 µM) | MIC ([3]; strain 1188 (Japan lung), no visible growth): 3.13 µg/mL (≈ 3.39 µM) | MIC ([3]; strain 1194 (Italy), no visible growth): 3.13 µg/mL (≈ 3.39 µM) | MIC ([3]; strain 1196 (Botswana CSF/AIDS), no visible growth): 3.13 µg/mL (≈ 3.39 µM) | MIC ([3]; strain 1197 (Botswana CSF/AIDS), no visible growth): 3.13 µg/mL (≈ 3.39 µM) | MIC ([3]; strain H99O (lab strain), no visible growth): 3.13 µg/mL (≈ 3.39 µM) | MIC ([3]; strain H99 stud (lab strain), no visible growth): 3.13 µg/mL (≈ 3.39 µM)

CCCCCCC[C@@H](O)CC(=O)N[C@H](C)C(=O)N[C@H]1CCNC(=O)[C@H](CC(C)C)NC(=O)[C@H](CCN)NC(=O)[C@H](CCN)NC(=O)[C@H](CC(C)C)NC(=O)[C@@H](Cc2ccccc2)NC(=O)[C@H](CCN)NC1=O [Compound P1D] ({Decanoyl(3R-OH)}-[dA][Dab][Dab][dF]L[Dab][Dab]L; lactam 2-C)
MICs against various Cryptococcus strains: H99 (cap59Δ) [4]: 12.5 µg/mL | MICs against various Cryptococcus strains: MMRL 2651 (C. gattii MMRL 2651; Table 2, C. gattii, triplicate, values consistent across replicates): 12.5 µg/mL | MICs against various Cryptococcus strains: ATCC 90113 (C. neoformans ATCC 90113): 6.25 µg/mL | MICs against various Cryptococcus strains: H99 (C. neoformans H99): 6.25 µg/mL

CCCCCCC[C@@H](O)CC(=O)N[C@@H](C)C(=O)N[C@H]1CCNC(=O)[C@H](CC(C)C)NC(=O)[C@H](CCN)NC(=O)[C@H](CCN)NC(=O)[C@H](CC(C)C)NC(=O)[C@@H](Cc2ccccc2)NC(=O)[C@H](CCN)NC1=O [Compound P1L] ({Decanoyl(3R-OH)}-A[Dab][Dab][dF]L[Dab][Dab]L; lactam 2-C)
MICs against various Cryptococcus strains: H99 (cap59Δ) [4]: 25.0 µg/mL | MICs against various Cryptococcus strains: MMRL 2651 (C. gattii MMRL 2651; 72 h): 12.5 µg/mL | MICs against various Cryptococcus strains: ATCC 90113 (C. neoformans ATCC 90113): 12.5 µg/mL | MICs against various Cryptococcus strains: H99 (C. neoformans H99): 12.5 µg/mL

— publication PMC5786788, “Antimicrobial Octapeptin C4 Analogues Active against Cryptococcus Species” (Antimicrobial Agents and Chemotherapy, 2018)
